Data taken from patent US20090124502A1, “USE OF SULFURYL FLUORIDE AS A SPROUT […]” (Dow AgroSciences LLC, priority 2007, published 2009).

What was measured:
Type in all cases: in vivo, Solanum tuberosum
[1] = tested on: Red potatoes; experiment: Sulfuryl fluoride fumigation of Red potatoes, physical and sprouting observations (Example 1); set-up: key to Tuber Firmness: 1 = firm; 2 = slightly spongy; 3 = very spongy, probably rotten
Protocol: (§1) Russet and red potatoes were purchased from an organic retail store and used for this study. These potatoes were exposed to 4 treatments (0 gram-hour/cubic meter [g-h/m^3], 500 g-h/m^3, 1000 g-h/m^3 and 1500 g-h/m^3) in a Styrofoam™ fumigation chamber. The exposure time was 12 hrs at ambient temperature of approximately 25° C. and relative humidity of 50 percent.

[2] = tested on: Russet potatoes; experiment: Sulfuryl fluoride fumigation of Russet potatoes, physical and sprouting observations (Example 1); set-up: key to Tuber Firmness: 1 = firm; 2 = slightly spongy; 3 = very spongy, probably rotten
Protocol: as §1

[3] = tested on: Russet Burbank potatoes; experiment: Sulfuryl fluoride fumigation of stored Russet Burbank potatoes, physical and sprouting observations (Example 2)
Protocol: A second study was conducted using stored Russet Burbank potatoes. These potatoes were exposed to 3 treatments (O g-h/m3, 300 g-h/m^3, and 500 g-h/m^3) in a Styrofoam™ fumigation chamber. The exposure time was 12 hrs at ambient temperature of approximately 25° C. and relative humidity of 50 percent. The treatments were replicated 3 times. Each replicate had approximately 10 lbs of potatoes.

[4] = tested on: organic Russet potatoes; experiment: Sulfuryl fluoride fumigation of stored organic Russet potatoes, physical and sprouting observations (Example 3); set-up: Avg Length of sprouts: unit not given here
Protocol: A third study was conducted using stored organic Russet potatoes. These potatoes were exposed to […] (0 g-h/m3, 50 g-h/m^3, 100 g-h/m^3 150 g-h/m^3 and 200 g-h/m^3) in a Styrofoam™ fumigation chamber. The exposure time was 12 hrs at ambient temperature of approximately 25° C. and relative humidity of 50 percent. The treatments were replicated 3 times. Each replicate had approximately 5 lbs of potatoes.

[5] = 500 g-h/m^3, 12 hrs exposure, 1 week after exposure
[6] = 500 g-h/m^3, 12 hrs exposure, 2 weeks after exposure
[7] = 500 g-h/m^3, 12 hrs exposure, 3 weeks after exposure
[8] = 500 g-h/m^3, 12 hrs exposure, 10 weeks after exposure
[9] = 1000 g-h/m^3, 12 hrs exposure, 1 week after exposure
[10] = 1000 g-h/m^3, 12 hrs exposure, 2 weeks after exposure
[11] = 1500 g-h/m^3, 12 hrs exposure, 1 week after exposure
[12] = 1500 g-h/m^3, 12 hrs exposure, 2 weeks after exposure
[13] = 300 g-h/m^3, 6 days after exposure, mean of 3 plots
[14] = 300 g-h/m^3, 6 days after exposure, single plots (replicates)
[15] = 300 g-h/m^3, 9 days after exposure, mean
[16] = 500 g-h/m^3, 6 days after exposure, mean of 3 plots
[17] = 500 g-h/m^3, 6 days after exposure, single plots (replicates)
[18] = 500 g-h/m^3, 9 days after exposure, mean
[19] = 50 g-h/m^3, 7 days after exposure
[20] = 50 g-h/m^3, 21 days after exposure
[21] = 50 g-h/m^3, 31 days after exposure
[22] = 100 g-h/m^3, 7 days after exposure
[23] = 100 g-h/m^3, 21 days after exposure
[24] = 100 g-h/m^3, 31 days after exposure
[25] = 150 g-h/m^3, 7 days after exposure
[26] = 150 g-h/m^3, 21 days after exposure
[27] = 150 g-h/m^3, 31 days after exposure
[28] = 200 g-h/m^3, 7 days after exposure
[29] = 200 g-h/m^3, 21 days after exposure
[30] = 200 g-h/m^3, 31 days after exposure

O=S(=O)(F)F [sulfuryl fluoride]
Average length of sprout [1, 5]: 0 mm
Avg. No. of Sprouts [1, 5]: 0
Tuber Firmness [1, 5]: 1
Average length of sprout [1, 6]: 0 mm
Avg. No. of Sprouts [1, 6]: 0
Tuber Firmness [1, 6]: 1
Avg. No. of Sprouts [1, 7]: 1.5
Tuber Firmness [1, 7]: 1
Avg. No. of Sprouts [1, 8]: 1.5
Tuber Firmness [1, 8]: 1
Average length of sprout [1, 9]: 0 mm
Avg. No. of Sprouts [1, 9]: 0
Tuber Firmness [1, 9]: 2
Average length of sprout [1, 10]: 0 mm
Avg. No. of Sprouts [1, 10]: 0
Tuber Firmness [1, 10]: 2
Average length of sprout [1, 11]: 0 mm
Avg. No. of Sprouts [1, 11]: 0
Tuber Firmness [1, 11]: 3
Average length of sprout [1, 12]: 0 mm
Avg. No. of Sprouts [1, 12]: 0
Tuber Firmness [1, 12]: 3
Average length of sprout [2, 5]: <1 mm
Avg. No. of Sprouts [2, 5]: 1.4
Tuber Firmness [2, 5]: 1
Average length of sprout [2, 6]: <1 mm
Avg. No. of Sprouts [2, 6]: 1.4
Tuber Firmness [2, 6]: 1
Average length of sprout [2, 7]: <3 mm
Avg. No. of Sprouts [2, 7]: 1.4
Tuber Firmness [2, 7]: 2
Average length of sprout [2, 9]: <1 mm
Avg. No. of Sprouts [2, 9]: 0.3
Tuber Firmness [2, 9]: 1
Average length of sprout [2, 10]: <1 mm
Avg. No. of Sprouts [2, 10]: 0.3
Tuber Firmness [2, 10]: 1
Average length of sprout [2, 11]: 0 mm
Avg. No. of Sprouts [2, 11]: 0
Tuber Firmness [2, 11]: 3
Average length of sprout [2, 12]: 0 mm
Avg. No. of Sprouts [2, 12]: 0
Tuber Firmness [2, 12]: 3
Avg Length of sprouts [3, 13]: 0.0 b MM
Tuber Firmness [3, 13]: 0.0 a 0-3
Avg Length of sprouts [3, 14]: 0.0 MM
Avg. Number of sprouts [3, 14]: 0.00
Tuber Firmness [3, 14]: 0.0 0-3
Number of Sprouts ([3]; 300 g-h/m^3, 6 days after exposure, single plots (replicates), 10 pounds): 0.0
Avg Length of sprouts [3, 15]: 0.0 b
Avg. Number of sprouts [3, 15]: 0.00 b
Number of Sprouts [3, 15]: 0.0 b
sprout growth ([3]; 300 g-h/m^3 and 500 g-h/m^3 treatments, Table 10 and 11 (6 and 9 days after exposure)): stopped sprouts from growing
Avg Length of sprouts [3, 16]: 0.0 b MM
Tuber Firmness [3, 16]: 0.0 a 0-3
Avg Length of sprouts [3, 17]: 0.0 MM
Avg. Number of sprouts [3, 17]: 0.00
Tuber Firmness [3, 17]: 0.0 0-3
Number of Sprouts ([3]; 500 g-h/m^3, 6 days after exposure, single plots (replicates), 10 pounds): 0.0
Avg Length of sprouts [3, 18]: 0.0 b
Avg. Number of sprouts [3, 18]: 0.00 b
Number of Sprouts [3, 18]: 0.0 b
sprout growth ([4]; 50 g-h/m^3, 21 DAT, compared to 150 and 200 g-h/m^3 treatments): significant sprout growth
Avg Length of sprouts [4, 19]: 1.1
Avg. Number of sprouts [4, 19]: 3.00
Number of Sprouts [4, 19]: 60.0
Tuber Firmness [4, 19]: 0.0 MM
Avg Length of sprouts [4, 20]: 9.1
Avg. Number of sprouts [4, 20]: 6.3
Number of Sprouts [4, 20]: 126.0
Tuber Firmness [4, 20]: 1.0 MM
Avg Length of sprouts [4, 21]: 21.1
Avg. Number of sprouts [4, 21]: 6.3
Number of Sprouts [4, 21]: 126.0
Tuber Firmness [4, 21]: 2.0 MM
sprout inhibition ([4]; 50 to 200 g-h/m^3, Table 13 (21 days after exposure)): dose dependent
sprout growth ([4]; 100 g-h/m^3, 21 DAT, compared to 150 and 200 g-h/m^3 treatments): significant sprout growth
Avg Length of sprouts [4, 22]: 1.0
Avg. Number of sprouts [4, 22]: 1.9
Number of Sprouts [4, 22]: 52.0
Tuber Firmness [4, 22]: 0.0 MM
Avg Length of sprouts [4, 23]: 6.5
Avg. Number of sprouts [4, 23]: 2.4
Number of Sprouts [4, 23]: 88.0
Tuber Firmness [4, 23]: 1.0 MM
Avg Length of sprouts [4, 24]: 16.5
Avg. Number of sprouts [4, 24]: 2.4
Number of Sprouts [4, 24]: 88.0
Tuber Firmness [4, 24]: 1.0 MM
sprout growth ([4]; 150 g-h/m^3, 7 DAT): slight sprout growth
sprout growth ([4]; 150 g-h/m^3, 21 DAT observations): did not grow further
Avg Length of sprouts [4, 25]: 0.2
Avg. Number of sprouts [4, 25]: 0.3
Number of Sprouts [4, 25]: 17.0
Tuber Firmness [4, 25]: 0.0 MM
Avg Length of sprouts [4, 26]: 0.2
Avg. Number of sprouts [4, 26]: 0.3
Number of Sprouts [4, 26]: 17.0
Tuber Firmness [4, 26]: 0.0 MM
Avg Length of sprouts [4, 27]: 1.2
Avg. Number of sprouts [4, 27]: 0.3
Number of Sprouts [4, 27]: 17.0
Tuber Firmness [4, 27]: 0.0 MM
Avg Length of sprouts [4, 28]: 0
Avg. Number of sprouts [4, 28]: 0
Number of Sprouts [4, 28]: 0
Tuber Firmness [4, 28]: 0.0 MM
Avg Length of sprouts [4, 29]: 0
Avg. Number of sprouts [4, 29]: 0
Number of Sprouts [4, 29]: 0
Tuber Firmness [4, 29]: 0.0 MM
Avg Length of sprouts [4, 30]: 0
Avg. Number of sprouts [4, 30]: 0
Number of Sprouts [4, 30]: 0
Tuber Firmness [4, 30]: 0.0 MM
phyto-toxic effects ([4]; 200 g-h/m^3, after 31 days): without any phyto-toxic effects
sprout inhibition ([4]; 200 g-h/m^3, after 31 days): best sprout inhibition
peel testing, black spot ([4]; all treatments of the study (50 to 200 g-h/m^3)): none of the treatments used in this study produced the black spot
